Measured values reported in EP1001770B1, “TAZAROTENE AND UVB PHOTOTHERAPY TREATMENT FOR PSORIASIS” (ALLERGAN, INC., priority 1997, dated 1998).

What was measured:
[1] = Same clinical study: adverse events and tolerability; assay type: in vivo, humans
Description: (§1) The Study objective was to assess safety and efficacy of pre-treatment with Tazarotene 0.1% gel and UVB phototherapy in comparison with the Tazarotene vehicle (placebo) and UVB phototherapy and UVB phototherapy, alone, for 10 weeks. During UVB phototherapy, topical agents were applied three times weekly to the target lesion by the phototherapy nurse. The study was a multicenter, investigator-masked study including 60 subjects and 120 target lesions. During the two-week pre-UVB phototherapy period the patients were randomly assigned to receive two of the following treatments: Tazarotene 0.1% gel once a day; vehicle gel once a day; or no treatment. The topical agents were applied once daily. Prior to UVB therapy, the minimal erythemal dose (MED) was assessed using a range of 20 mJoules/cm^2 up to 100 mJoules/cm^2. Initial starting UVB dose is 25% of MED. If MED is immeasurable, starting dose is 25 mJoules/cm^2. During the ten-week UVB phototherapy period the patients were treated with UVB therapy three times a week and topical therapy three times weekly (0.1% Tazarotene gel, vehicle gel, or no treatment) administered by the phototherapy nurse after UVB exposure. Study population was as follows: male or non-reproductive female; 18 years or older; stable plaque psoriasis; two bilaterally symmetrical plaques accessible to phototherapy; not exceeding 50% of TBS; baseline plaque elevation of at least four (moderate, in 0-8 scoring system); no oral retinoid within two months; no excessive vitamin A intake; no oral psoriatic therapy (other than retinoid) or PUVA within one month; no UVB within two weeks; no significant systemic disease or immunosuppression. The UVB exposure was increased until either improvement in psoriasis was noted or MED was reached. If one target lesion reached MED earlier than the other, a photo-opaque covering was applied to the former so the latter site could still be treated with a higher dose of UVB irradiation. If both target lesions cleared, UVB was discontinued. […] The following evaluation criteria was used: • Efficacy Variable • Plaque elevation, scaling, erythema: • Grading Scale • 0 = none, 2= mild, 4=moderate, 6=severe, 8=very severe (with whole-point increments (1, 3, 5, 7) serving as mid-points) • Global response to treatment • Total cumulative UVB exposure (mJoules/cm^2)
The following adverse events were reported during the study: […]

stable plaque psoriasis = assay: Clinical study of Tazarotene 0.1% gel plus UVB phototherapy versus vehicle plus UVB or UVB alone: efficacy on target lesions; assay type: in vivo, humans
Description: as §1
Treatment success is defined as moderate response or better.

[2] = adverse events reported during the study (count), with UVB phototherapy

Structure (SMILES): CCOC(=O)c1ccc(C#Cc2ccc3c(c2)C(C)(C)CCS3)nc1 [Tazarotene]
- Burning sensation [1, 2]: 1
- Itching [1, 2]: 1
- Lesional irritation [1, 2]: 0
- Perilesional irritation [1, 2]: 2
- Perilesional tenderness [1, 2]: 0
- severity of adverse events ([1]; all reported adverse events): mild
- reduction in plaque (stable plaque psoriasis; Figure 1, Tazarotene plus UVB compared with UVB treatment alone): more effective
- reduction in scaling (stable plaque psoriasis; Figure 2, Tazarotene plus UVB compared with UVB treatment alone): more effective
- reduction in erythema (stable plaque psoriasis; Figure 3, Tazarotene plus UVB compared with UVB treatment alone): more effective
- treatment success rate (stable plaque psoriasis; Figure 4, Tazarotene and UVB phototherapy, by day 81, success = moderate response or better): 100%
- reductions in plaque (stable plaque psoriasis; Figure 5, Tazarotene and UVB compared with UVB alone or UVB with vehicle (placebo)): greater
- reductions in scaling (stable plaque psoriasis; Figure 6, Tazarotene and UVB compared with UVB alone or UVB with vehicle (placebo)): greater
- reductions in erythema (stable plaque psoriasis; Figure 7, Tazarotene and UVB compared with UVB alone or UVB with vehicle (placebo)): greater
- success rate (stable plaque psoriasis; Figure 8, Tazarotene and UVB treatment, at 81 days): 100%
- success (stable plaque psoriasis; Figure 8, Tazarotene and UVB, at day 53): about 90%
- time to reach treatment success (stable plaque psoriasis; Tazarotene and UVB compared with vehicle and UVB): more quickly
- overall effectiveness in treating psoriasis (stable plaque psoriasis; Tazarotene and UVB compared with vehicle and UVB or UVB alone): more effective
